Our source for the IC50 and EC50 values is ChEMBL document CHEMBL4184110 (Bioorg Med Chem Lett, 2018).

Test [1] concerns the target T1, Retinoic acid receptor RXR-alpha (Homo sapiens, UniProt P19793).
T1 sequence (P19793 whole entry): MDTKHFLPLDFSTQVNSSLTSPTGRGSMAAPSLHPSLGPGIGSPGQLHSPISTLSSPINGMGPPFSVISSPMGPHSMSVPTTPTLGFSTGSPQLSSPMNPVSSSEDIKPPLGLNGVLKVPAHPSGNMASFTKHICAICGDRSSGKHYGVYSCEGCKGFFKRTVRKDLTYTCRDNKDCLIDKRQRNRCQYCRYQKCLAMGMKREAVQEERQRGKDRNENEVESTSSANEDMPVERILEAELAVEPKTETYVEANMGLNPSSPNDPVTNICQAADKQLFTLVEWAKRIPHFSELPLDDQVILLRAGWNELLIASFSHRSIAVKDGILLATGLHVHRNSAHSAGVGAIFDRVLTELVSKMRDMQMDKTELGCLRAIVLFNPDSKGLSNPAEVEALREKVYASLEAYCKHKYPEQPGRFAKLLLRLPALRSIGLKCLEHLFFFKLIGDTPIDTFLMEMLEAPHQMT
Put plainly: Antagonist activity at CMV-fused RXRalpha-LBD-GAL4-DBD (unknown origin) expressed in HEK293T cells assessed as inhibition of bexarotene-induced receptor transactivation after 16 hrs by bright-Glo luciferase reporter gene assay. In kind it is cell-based. Background: Reporter assays use an easily measured gene product as a stand-in for the process of interest.

The target of test [2] is T2, Vitamin D3 receptor (Homo sapiens, UniProt P11473).
T2 sequence (P11473 whole entry): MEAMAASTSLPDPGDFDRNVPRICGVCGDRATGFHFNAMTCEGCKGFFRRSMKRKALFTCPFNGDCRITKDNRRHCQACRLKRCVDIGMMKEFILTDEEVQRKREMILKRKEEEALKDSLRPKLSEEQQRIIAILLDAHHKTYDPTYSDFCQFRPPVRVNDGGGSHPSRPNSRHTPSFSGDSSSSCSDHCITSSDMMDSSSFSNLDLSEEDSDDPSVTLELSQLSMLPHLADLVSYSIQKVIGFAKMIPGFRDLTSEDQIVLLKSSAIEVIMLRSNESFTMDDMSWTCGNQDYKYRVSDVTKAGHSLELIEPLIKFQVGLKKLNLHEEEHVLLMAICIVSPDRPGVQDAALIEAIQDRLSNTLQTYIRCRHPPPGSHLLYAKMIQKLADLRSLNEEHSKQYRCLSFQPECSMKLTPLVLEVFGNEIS
In words: Agonist activity at VDR-LBD (unknown origin) assessed as recruitment of alexa fluor 647-labeled SRC2-3 after 30 mins by fluorescence polarization assay.

Test [3] deals with T3, Peroxisome proliferator-activated receptor delta (Homo sapiens, UniProt Q03181).
T3 sequence (Q03181 whole entry): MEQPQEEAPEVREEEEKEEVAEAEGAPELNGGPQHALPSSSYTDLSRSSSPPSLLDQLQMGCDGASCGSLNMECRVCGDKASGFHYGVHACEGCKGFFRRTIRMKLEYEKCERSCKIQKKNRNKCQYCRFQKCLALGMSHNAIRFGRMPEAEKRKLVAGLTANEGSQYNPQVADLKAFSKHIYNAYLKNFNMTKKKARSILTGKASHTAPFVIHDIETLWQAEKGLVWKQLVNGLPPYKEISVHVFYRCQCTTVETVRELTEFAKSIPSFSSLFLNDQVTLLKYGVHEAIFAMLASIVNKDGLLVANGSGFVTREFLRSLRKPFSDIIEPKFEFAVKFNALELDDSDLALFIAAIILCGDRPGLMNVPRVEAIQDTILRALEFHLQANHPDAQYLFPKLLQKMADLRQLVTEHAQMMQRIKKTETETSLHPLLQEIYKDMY
In words: Transactivation of CMV-fused PPARdelta-LBD-GAL4-DBD (unknown origin) expressed in HEK293T cells by luciferase reporter gene assay. It counts as cell-based.

Test [4] concerns the target T4, Estrogen receptor (Homo sapiens, UniProt P03372).
T4 sequence (P03372 whole entry): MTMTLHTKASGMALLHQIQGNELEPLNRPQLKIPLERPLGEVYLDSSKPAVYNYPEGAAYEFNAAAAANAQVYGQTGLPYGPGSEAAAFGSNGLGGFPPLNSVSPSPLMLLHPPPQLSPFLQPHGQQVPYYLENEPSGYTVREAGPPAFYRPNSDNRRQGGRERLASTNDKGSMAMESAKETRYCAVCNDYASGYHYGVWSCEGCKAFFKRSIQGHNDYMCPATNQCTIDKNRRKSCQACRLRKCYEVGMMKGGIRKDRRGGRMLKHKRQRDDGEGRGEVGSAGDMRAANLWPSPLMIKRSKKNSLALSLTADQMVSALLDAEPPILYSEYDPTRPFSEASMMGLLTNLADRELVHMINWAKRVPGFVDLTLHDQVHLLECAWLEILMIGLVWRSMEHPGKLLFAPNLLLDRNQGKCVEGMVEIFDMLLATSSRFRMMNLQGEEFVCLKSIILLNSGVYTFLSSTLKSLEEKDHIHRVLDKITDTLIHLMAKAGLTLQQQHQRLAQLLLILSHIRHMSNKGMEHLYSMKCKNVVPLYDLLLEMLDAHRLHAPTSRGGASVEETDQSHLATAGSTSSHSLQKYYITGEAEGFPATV
In words: Antagonist activity at CMV-fused ERalpha-LBD-GAL4-DBD (unknown origin) expressed in HEK293T cells assessed as inhibition of estradiol-induced receptor transactivation after 16 hrs by bright-Glo luciferase reporter gene assay. It counts as cell-based.

The target in test [5] is T5, Thyroid hormone receptor alpha (Homo sapiens, UniProt P10827).
T5 sequence (P10827 whole entry): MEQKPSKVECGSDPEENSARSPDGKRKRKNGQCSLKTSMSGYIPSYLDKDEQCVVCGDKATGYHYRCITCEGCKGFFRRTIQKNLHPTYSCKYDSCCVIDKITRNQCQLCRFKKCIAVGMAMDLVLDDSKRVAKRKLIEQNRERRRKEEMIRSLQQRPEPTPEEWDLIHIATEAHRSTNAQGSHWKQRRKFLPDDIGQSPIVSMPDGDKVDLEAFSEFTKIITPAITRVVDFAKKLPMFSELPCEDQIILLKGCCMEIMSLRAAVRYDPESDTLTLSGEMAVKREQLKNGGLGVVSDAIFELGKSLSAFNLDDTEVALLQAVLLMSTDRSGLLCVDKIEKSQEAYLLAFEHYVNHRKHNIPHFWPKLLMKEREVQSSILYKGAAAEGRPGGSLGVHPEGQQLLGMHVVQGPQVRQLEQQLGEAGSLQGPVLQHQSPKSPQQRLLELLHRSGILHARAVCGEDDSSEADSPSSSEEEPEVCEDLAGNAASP
Put plainly: Antagonist activity at CMV-fused TRalpha-LBD-GAL4-DBD (unknown origin) expressed in HEK293T cells assessed as inhibition of T3-induced receptor transactivation after 16 hrs by bright-Glo luciferase reporter gene assay. In kind it is cell-based.

On to `COC(=O)c1ccc(OCc2oc(-c3cccc(OC)c3)nc2C)cc1`, for which the IC50 turned out to be 4.6 µM in test [1], 4.7 µM in test [4] and 5.4 µM in test [5]. Also, the EC50 entry in test [2] and in test [3] was “Not Active” in each case.
Take `COC(=O)c1cccc(OCc2oc(-c3ccccc3OC)nc2C)c1`: the IC50 in test [1] is 11.1 µM; in test [4], 5.2 µM; in test [5], 10.1 µM. Further, the EC50 result in test [2] and in test [3] was “Not Active” in each case.
In the case of `COC(=O)Cc1ccc(OCc2oc(-c3cccc(OC)c3)nc2C)cc1`, the IC50 in test [1] was determined as 2 µM; in test [4], 1.7 µM; in test [5], 4.2 µM. In addition, the EC50 result in test [2] and in test [3] was “Not Active” throughout.
With `COC(=O)Cc1ccc(OCc2oc(-c3ccccc3OC)nc2C)cc1`, the figures for the IC50 in test [1], in test [4] and in test [5] were 4.4 µM, 4.1 µM and 8.4 µM, respectively. The EC50 entry in test [2] and in test [3] was “Not Active” throughout.

What is called IC50 is the concentration needed to halve the response being measured.
